{"source": "paper PMC11968843", "about": "“Sulphostin-inspired N-phosphonopiperidones as selective covalent DPP8 and DPP9 inhibitors” (Nature Communications, 2025)", "key": {"[1]": {"system": "HeLa wild-type cells", "assay": "Cell viability assay (MTT), inhibitor alone", "format": "cell-based", "conditions": "for Cell viability normalized to mock treated cells + 0 µM MMC: individual replicate values (Supplementary Figure 11a); for 95% confidence interval of difference: Figure 5d S11a, Ctrl. [-MMC] vs. compound [-MMC], Tukey's multiple comparisons test", "experimental": "(§1) HeLa wild-type (HeLa Flp-In T-REx WT, kind gift from Prof. Matthias Hentze) and HeLa DPP9^KO cells (prepared in-house) were cultured in DMEM (ThermoFisher, USA) supplemented with 10% FBS (PAN Biotech, Germany), 2 mM L-Glutamin (ThermoFisher, USA) and 1% Penicillin/Streptomycin (100 U mL^−1 Penicillin and 100 µg mL^−1 Streptomycin, ThermoFisher, USA). Cells were seeded in 96-well flat-bottom cell culture plates (Greiner, Germany) at a concentration of 5 × 10^3 cells per well (37 °C and 5% CO2). The indicated concentration of Mitomycin C (MMC, Merck) was added to the cells 24 h after seeding, together with 10 µM of the indicated inhibitor. The inhibitors were refreshed every 24 h. Control cells were treated with DMSO.\n(§2) Cell viability was measured 72 hours after the MMC treatment. For this, the medium was removed and replaced with phenol-red free DMEM (ThermoFisher, USA) containing 0.5 mg mL^−1 MTT (Sigma Aldrich, USA). Cells were incubated for 30 min at 37 °C, 5% CO2. Subsequently, the medium was removed and replaced by DMSO. The plates were shaken on an orbital shaker for 20 min before measuring the MTT signal on a CARIOstar Plus microplate reader (BMT labtech, Germany). Each experiment was performed three times, each in triplicates."}, "[2]": {"molecular_target": "DPP9 (Homo sapiens, UniProt Q86TI2)", "sequence (Q86TI2 whole entry)": "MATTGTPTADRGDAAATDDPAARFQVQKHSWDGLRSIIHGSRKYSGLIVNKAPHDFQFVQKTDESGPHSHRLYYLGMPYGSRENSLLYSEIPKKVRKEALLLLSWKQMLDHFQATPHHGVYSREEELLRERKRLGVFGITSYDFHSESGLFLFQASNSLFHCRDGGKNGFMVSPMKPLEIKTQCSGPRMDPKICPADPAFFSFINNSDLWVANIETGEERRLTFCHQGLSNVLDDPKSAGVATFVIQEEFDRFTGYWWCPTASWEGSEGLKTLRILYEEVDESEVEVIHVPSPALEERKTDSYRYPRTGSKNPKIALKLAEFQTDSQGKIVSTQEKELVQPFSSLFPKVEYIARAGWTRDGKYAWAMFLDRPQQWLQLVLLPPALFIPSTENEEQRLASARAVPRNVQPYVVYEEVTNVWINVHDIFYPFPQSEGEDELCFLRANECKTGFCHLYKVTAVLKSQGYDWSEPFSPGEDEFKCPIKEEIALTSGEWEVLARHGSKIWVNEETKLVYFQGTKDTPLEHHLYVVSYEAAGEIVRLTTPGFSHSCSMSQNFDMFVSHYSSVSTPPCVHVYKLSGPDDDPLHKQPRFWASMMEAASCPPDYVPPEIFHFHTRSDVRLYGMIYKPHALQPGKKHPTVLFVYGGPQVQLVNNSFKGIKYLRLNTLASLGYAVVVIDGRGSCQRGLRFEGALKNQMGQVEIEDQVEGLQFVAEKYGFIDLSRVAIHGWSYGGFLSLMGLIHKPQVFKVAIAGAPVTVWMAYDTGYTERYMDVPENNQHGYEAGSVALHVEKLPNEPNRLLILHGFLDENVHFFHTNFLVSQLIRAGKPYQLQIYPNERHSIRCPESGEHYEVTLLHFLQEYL", "assay": "biochemical", "format": "biochemical", "design": "purchased Proteros Biostructures GmbH, Germany", "conditions": "for IC50: GP-AMC 250 µM, 10 nM enzyme, 45 min pre-incubation at 30 °C, read-out: IC50 DPP9", "experimental": "(§3) Enzyme activity of DPP4, DPP8, DPP9 (Proteros Biostructures GmbH, Germany) and PREP (Sigma Aldrich, USA) was determined by measuring the initial velocity of AMC release from the fluorogenic substrate GP-AMC (Sigma Aldrich, USA) using a Tecan Spark® 10 M multimode microplate reader (Tecan Group Ltd., Switzerland) in activity buffer (20 mM HEPES/KOH pH 7.3, 110 mM potassium acetate, 2 mM Mg acetate, 0.5 mM EGTA, 0.02% Tween 20, supplemented with 1 mM DTT) and a final volume of 20 μL for maximal 60 min at 30 °C. Prior to activity measurement, 10 nM enzyme was incubated for 45 min at 30 °C and gentle shaking with the inhibitor compounds in concentrations ranging from 0 to 100 μM. The compounds were dissolved in DMSO and diluted in activity buffer (final DMSO concentration: 1%). […] IC50 values were calculated using Graph-Pad Prism v10.2.3 using the equation: [Inhibitor] vs. response—Variable slope (four parameters). All measurements were performed in triplicates and error bars represent standard errors of the fit."}, "[3]": {"molecular_target": "T1, DPP8 (Homo sapiens, UniProt Q6V1X1)", "T1 construct": "purchased Proteros Biostructures GmbH, Germany", "T1 sequence (Q6V1X1 whole entry)": "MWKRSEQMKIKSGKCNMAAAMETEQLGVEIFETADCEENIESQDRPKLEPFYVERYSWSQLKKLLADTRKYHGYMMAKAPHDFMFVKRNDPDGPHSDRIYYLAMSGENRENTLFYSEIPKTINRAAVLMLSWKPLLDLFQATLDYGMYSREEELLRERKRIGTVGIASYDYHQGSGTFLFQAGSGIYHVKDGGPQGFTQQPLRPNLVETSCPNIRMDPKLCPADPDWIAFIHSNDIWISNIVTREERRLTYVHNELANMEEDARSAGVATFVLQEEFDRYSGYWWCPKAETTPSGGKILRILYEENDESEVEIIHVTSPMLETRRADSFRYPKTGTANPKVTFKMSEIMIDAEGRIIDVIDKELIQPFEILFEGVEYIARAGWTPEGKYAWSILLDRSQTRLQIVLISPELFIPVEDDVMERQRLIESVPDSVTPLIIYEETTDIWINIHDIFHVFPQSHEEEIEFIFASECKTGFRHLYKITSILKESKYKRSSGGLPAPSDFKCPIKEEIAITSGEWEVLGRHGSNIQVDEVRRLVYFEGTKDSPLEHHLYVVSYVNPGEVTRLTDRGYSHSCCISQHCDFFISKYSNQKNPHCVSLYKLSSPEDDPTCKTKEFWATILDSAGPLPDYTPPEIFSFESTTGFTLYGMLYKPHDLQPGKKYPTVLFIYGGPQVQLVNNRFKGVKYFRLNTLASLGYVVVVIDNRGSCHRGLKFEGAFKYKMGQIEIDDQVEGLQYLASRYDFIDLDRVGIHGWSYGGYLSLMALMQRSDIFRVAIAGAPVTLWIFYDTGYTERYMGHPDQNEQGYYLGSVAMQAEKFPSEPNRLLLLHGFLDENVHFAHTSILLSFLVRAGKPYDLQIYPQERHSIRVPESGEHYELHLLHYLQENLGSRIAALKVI", "assay": "biochemical", "format": "biochemical", "conditions": "for IC50: GP-AMC 250 µM, 10 nM enzyme, 45 min pre-incubation at 30 °C, read-out: IC50 DPP8", "experimental": "as §3"}, "[4]": {"molecular_target": "T2, DPP9-BRCA2 interaction in HeLa wild-type cells (Homo sapiens, UniProt Q86TI2)", "T2 construct": "endogenous in cells; host or cells: HeLa wild-type (HeLa Flp-In T-REx WT)", "T2 sequence (Q86TI2 whole entry)": "as the sequence (Q86TI2 whole entry) above", "assay": "Proximity ligation assay (PLA) of MMC-induced DPP9-BRCA2 interaction", "format": "cell-based", "conditions": "for 95% confidence interval of difference: compound vs. +Ctrl., Unpaired two-sided t-test", "experimental": "HeLa wild-type cells were cultured as described above. Cells were seeded on coverslips in 24‐well plates (Greiner, Germany) at a concentration of 2 × 10^4 cells per well (37 °C and 5% CO2). To induce a DPP9-BRCA2 interaction, 300 nM MMC was added to the cells 8 h after seeding and for a total incubation time of 24 h. Indicated Inhibitors (10 µM) were added 1 h prior to cell fixation. Cells were fixed with 4% formaldehyde in PBS for 10 min and permeabilized with 0.2% Triton‐X‐100 in PBS for 5 min. The proximity ligation assay (PLA) was performed using the Duolink in situ PLA Kit (Sigma Aldrich, USA). Briefly, cells were washed with PBS and blocked with Duolink Blocking solution for 60 min at 37 °C. […] Antibody control coverslips were treated with only one primary antibody to estimate background staining in each experiment. Coverslips were washed and treated with PLA reagents according to the manufacturers protocol. Cells were mounted in DAKO with DAPI fluorescent mounting medium and analyzed using an LSM 710 confocal microscope, 63x NA 1.4 oil immersion objective (Zeiss, Germany). Images were processed using Zen black v2.3 (Zeiss, Germany) and subsequently analyzed using the Duolink ImageTool Setup 1.0.1.2 (Sigma Aldrich, USA)."}, "[5]": {"system": "HeLa wild-type cells", "assay": "Cell viability assay (MTT), co-treatment with Mitomycin C", "format": "cell-based", "conditions": "for cell viability normalized for each condition seperately to corresponsing [-MMC +inhibitor] control: +MMC co-treatment, individual replicate values (Supplementary Figure 11b); for effect on cell viability / sensitivity to MMC: HeLa wild-type, 1 µM MMC + 10 µM inhibitor, 72 h", "experimental": "as §1, §2"}, "[6]": {"molecular_target": "T3, DPP4 (Homo sapiens, UniProt P27487)", "T3 construct": "purchased Proteros Biostructures GmbH, Germany", "T3 sequence (P27487 whole entry)": "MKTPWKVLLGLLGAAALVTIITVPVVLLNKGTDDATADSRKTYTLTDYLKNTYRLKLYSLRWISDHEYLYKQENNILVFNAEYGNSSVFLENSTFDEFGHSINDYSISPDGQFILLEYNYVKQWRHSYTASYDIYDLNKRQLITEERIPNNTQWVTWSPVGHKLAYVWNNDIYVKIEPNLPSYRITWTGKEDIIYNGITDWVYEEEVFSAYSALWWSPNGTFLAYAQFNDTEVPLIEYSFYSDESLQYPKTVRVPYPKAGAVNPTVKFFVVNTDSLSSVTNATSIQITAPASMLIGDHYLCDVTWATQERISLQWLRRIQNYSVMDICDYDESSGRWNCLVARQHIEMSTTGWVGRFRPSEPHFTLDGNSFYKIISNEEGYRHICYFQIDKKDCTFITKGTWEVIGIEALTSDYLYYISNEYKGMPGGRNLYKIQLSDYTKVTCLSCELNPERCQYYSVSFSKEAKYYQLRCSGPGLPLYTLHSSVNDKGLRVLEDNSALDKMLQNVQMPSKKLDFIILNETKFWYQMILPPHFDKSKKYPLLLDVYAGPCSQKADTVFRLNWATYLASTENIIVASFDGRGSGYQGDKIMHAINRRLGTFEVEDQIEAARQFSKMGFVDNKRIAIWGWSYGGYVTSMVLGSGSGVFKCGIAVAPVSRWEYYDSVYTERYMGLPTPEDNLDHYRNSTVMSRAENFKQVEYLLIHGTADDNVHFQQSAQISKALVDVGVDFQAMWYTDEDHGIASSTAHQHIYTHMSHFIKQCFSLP", "assay": "biochemical", "format": "biochemical", "experimental": "as §3"}, "[7]": {"conditions": "Figure 5d S11a, + Ctrl. [+MMC] vs. compound [+MMC], Tukey's multiple comparisons test"}, "[8]": {"conditions": "Figure S11b, Ctrl. vs. compound, Uncorrected Fisher's LSD"}}, "note": "“And” between values parts separate entries of the source, which are not always exact repeats. Equal values may be shown once. “Also recorded” adds a separate entry of the source."}
{"smiles": "N[C@@H](CC(=O)N1CCN(C(c2ccc(F)cc2)c2ccc(F)cc2)CC1)C(=O)N1Cc2ccccc2C1", "note": "[1G244, reference compound]", "values": [{"measurement": "Cell viability normalized to mock treated cells + 0 µM MMC", "setting": "[1]", "value": "47.738% and 64.0147% and 69.6676% and 64.7998% and 59.8364% and 62.7117% and 63.5049% and 78.6659% and 67.3863%"}, {"measurement": "95% confidence interval of difference", "setting": "[1]", "value": "26,96 to 48,16"}, {"measurement": "effect on cell viability without MMC", "setting": "[1]; HeLa wild-type, 10 µM, 72 h", "value": "reduced cell viability"}, {"measurement": "IC50", "setting": "[2]", "value": "0.014 ± 0.002", "unit": "µM"}, {"measurement": "DPP9 activity [%]", "setting": "[2]; c 1.6 nM", "value": "98.3651% and 97.0319% and 99.1099%"}, {"measurement": "DPP9 activity [%]", "setting": "[2]; c 3.1 nM", "value": "86.8432% and 92.2931% and 89.5294%"}, {"measurement": "DPP9 activity [%]", "setting": "[2]; c 6.3 nM", "value": "74.2081% and 76.5022% and 75.3461%"}, {"measurement": "DPP9 activity [%]", "setting": "[2]; c 25 nM", "value": "35.0531% and 41.6358% and 39.7574%"}, {"measurement": "DPP9 activity [%]", "setting": "[2]; c 50 nM", "value": "22.1104% and 25.58% and 23.0144%"}, {"measurement": "DPP9 activity [%]", "setting": "[2]; c 100 nM", "value": "13.084% and 15.2109% and 15.2279%"}, {"measurement": "IC50", "setting": "[3]", "value": "0.0044 ± 0.0015", "unit": "µM"}, {"measurement": "DPP8 activity [%]", "setting": "[3]; c 1.6 nM", "value": "91.0893% and 98.7118% and 100.309%"}, {"measurement": "DPP8 activity [%]", "setting": "[3]; c 3.1 nM", "value": "71.9188% and 85.2033% and 73.5988%"}, {"measurement": "DPP8 activity [%]", "setting": "[3]; c 6.3 nM", "value": "45.4307% and 54.9695% and 54.3535%"}, {"measurement": "DPP8 activity [%]", "setting": "[3]; c 25 nM", "value": "12.8362% and 14.9584% and 14.076%"}, {"measurement": "DPP8 activity [%]", "setting": "[3]; c 50 nM", "value": "6.548% and 6.987% and 5.844%"}, {"measurement": "DPP8 activity [%]", "setting": "[3]; c 100 nM", "value": "2.369% and 3.267% and 3.933%"}, {"measurement": "95% confidence interval of difference", "setting": "[4]; Figure 5c", "value": "-77,49 to -58,50"}, {"measurement": "95% confidence interval of difference", "setting": "[4]; Figure S10a replicate 1", "value": "-64,34 to -33,22"}, {"measurement": "95% confidence interval of difference", "setting": "[4]; Figure S10a replicate 2", "value": "-102,2 to -69,11"}, {"measurement": "95% confidence interval of difference", "setting": "[4]; Figure S10a replicate 3", "value": "-86,10 to -55,17"}, {"measurement": "effect on MMC-induced DPP9-BRCA2 PLA events", "setting": "[4]; HeLa wild-type, 300 nM MMC 24 h, 10 µM inhibitor", "value": "fewer MMC-induced PLA events"}, {"measurement": "cell viability normalized for each condition seperately to corresponsing [-MMC +inhibitor] control", "setting": "[5]", "value": "65.3963% and 56.5004% and 50.0376% and 54.1195% and 51.2842% and 44.9012% and 47.541% and 41.8131% and 48.7041%"}, {"measurement": "95% confidence interval of difference", "setting": "[5]; [7]", "value": "21,97 to 43,17"}, {"measurement": "95% confidence interval of difference", "setting": "[5]; [8]", "value": "6,539 to 20,16"}, {"measurement": "effect on cell viability / sensitivity to MMC", "setting": "[5]", "value": "increases the sensitivity of; also recorded: significantly reduced cell viability"}]}
{"smiles": "N[C@@H](CC(=O)N1CCn2c(nnc2C(F)(F)F)C1)Cc1cc(F)c(F)cc1F", "note": "[Sitagliptin]", "values": [{"measurement": "Cell viability normalized to mock treated cells + 0 µM MMC", "setting": "[1]", "value": "87.835% (2×) and 113.478% (2×) and 105.575% (2×) and 118.346% (2×) and 103.264% (2×) and 91.1179% (2×) and 93.7454% (2×) and 87.0346% (2×) and 95.6216% (2×)"}, {"measurement": "95% confidence interval of difference", "setting": "[1]", "value": "-8,338 to 12,86"}, {"measurement": "cell viability normalized for each condition seperately to corresponsing [-MMC +inhibitor] control", "setting": "[5]", "value": "57.6636% and 68.4041% and 71.5915% and 62.1849% and 65.8665% and 55.7127% and 55.3675% and 52.3411% and 61.9483%"}, {"measurement": "95% confidence interval of difference", "setting": "[5]; [7]", "value": "-7,015 to 14,19"}, {"measurement": "95% confidence interval of difference", "setting": "[5]; [8]", "value": "-3,548 to 10,07"}, {"measurement": "effect on cell viability / sensitivity to MMC", "setting": "[5]", "value": "no additional effect"}]}
{"smiles": "NC1CCCN(P(N)(=O)NS(=O)(=O)O)C1=O", "note": "(stereo not shown) [WTC0260B]", "values": [{"measurement": "IC50", "setting": "[2]", "value": 6.26, "unit": "µM"}, {"measurement": "IC50", "setting": "[3]", "value": 27.9, "unit": "µM"}]}
{"smiles": "CC(C)[C@H](N)C(=O)N1CCC[C@H]1B(O)O", "note": "[VbP, Val-boroPro, reference compound]", "values": [{"measurement": "DPP4 activity [%]", "setting": "[6]; c 1.6 nM", "value": "67.4885% and 113.658% and 85.6002%"}, {"measurement": "DPP4 activity [%]", "setting": "[6]; c 3.1 nM", "value": "70.6772% and 79.559% and 93.9074%"}, {"measurement": "DPP4 activity [%]", "setting": "[6]; c 6.3 nM", "value": "51.4161% and 71.0555% and 74.1702%"}, {"measurement": "DPP4 activity [%]", "setting": "[6]; c 25 nM", "value": "4.534% and 5.3397% and 4.7469%"}, {"measurement": "DPP4 activity [%]", "setting": "[6]; c 50 nM", "value": "3.474% and 3.265% and 3.283%"}, {"measurement": "DPP4 activity [%]", "setting": "[6]; c 100 nM", "value": "2.2772% and 2.383% and 2.483%"}]}
